Earlier results in patent publication US20070082064A1, “Nutritional or dietary supplement for the treatment of macular degeneration” (priority 2005, published 2007).

In the case of vitamin E, the risk of death (daily dose of 200 IU per day) is listed as “no increased risk of death” and the “risk of death higher than among those taking placebos” value (daily doses of 400 IU or more, meta-analysis of 19 trials, more than 136,000 patients) is listed as “about 10%”.
